Patent publication US12564559B2, “Combinations of LSD1 inhibitors for use in the treatment of solid tumors” (Oryzon Genomics, S.A., priority 2016, dated 2026)
Read-outs that look alike come from different tables or passages of the source.

Assays:
NCI-H526 model = assay: NCI-H526 xenograft model, combination with etoposide and carboplatin (Example 4, FIG. 2B); type: in vivo, nu/nu mice; conditions: added at 20 upk 5/2 for three weeks to SOC (etoposide + carboplatin)
Method: 8-12-week old nu/nu mice were injected with 1×10^7 H526 cells or […] SHP-77 resuspended in 100 μL of 1:1 mixture of Matrigel® and PBS. Tumors were staged at 100-150 mm^3 animals and distributed into dosing groups. […] Carboplatin was administered i.p. at a dose of 100 mpk weekly for three weeks (qwkx3). […] Tumor volume was measure biweekly using a digital caliber. The endpoint of the experiment was a tumor volume of 1000 mm^3 or 90 days, whichever came first. Statistical analysis was performed using unpaired t-test and Gehan-Breslow-Wilcoxon test.

H510A xenograft model = assay: NCI-H510A xenograft model, in vivo tumor growth inhibition (Example 9, FIG. 9); design: species or system athymic nude mice; conditions: 40 μg per kg five days on/two days off; after 21 days of dosing; compared to untreated controls
Method: 7-8-week old athymic nude mice animals were injected with 5×10^6 H510A cells resuspended in 100 μL of 1:1 mixture of Matrigel® matrix (Corning Inc., Tewksbury/MA, C. S. Hughes et al.^113) and PBS. Tumors were staged at 200-300 mm^3 animals and distributed into dosing groups. […] Tumor volume was measure biweekly using a digital caliber. The study was concluded when mean tumor volume within control group reached 2000 mm^3 or 28 days post-staging. Statistical analysis was performed using unpaired t-test.

NCI-H1876 [1] = assay: Growth Inhibition (ATPLite), SCLC cell line treated for 7 days (Example 1); type: cell-based, human; conditions: NCI-H1876, “classic” neuroendocrine, FIG. 1A
Method: (§1) Once cells have been expanded and divided at their expected doubling times, screening was started. Cells were seeded in growth media in black 384-well tissue culture treated plates at 500 cells per well (except where noted in Analyzer). Cells were equilibrated in assay plates via centrifugation and placed in incubators attached to the Dosing Modules at 37° C. for twenty-four hours before treatment. […] These Tzero (T0) plates were read using ultra-sensitive luminescence on Envision Plate Readers.

NCI-H510 = assay: as above; type: cell-based, human; conditions: NCI-H510, “classic” neuroendocrine, FIG. 1B
Method: as §1

NCI-H1876 [2] = assay: Cell response to LSD1 inhibition, SCLC cell line cultured 4 days (Example 5); type: cell-based, human; conditions: NCI-H1876, SubType C; for EC50: Homo sapiens, 96 h
Excerpt: (§2) As a positive control for cytotoxicity the Hsp90 inhibitor 17-N-allylamino-17-demethoxygeldanamycin (17-AAG, a geldanamycin analogue) was used as positive control in serial dilution.

NCI-H1417 = assay: as above; type: cell-based, human; conditions: NCI-H1417, SubType C; for EC50: Homo sapiens, 96 h
Excerpt: as §2

NCI-H345 = assay: as above; type: cell-based, human; conditions: NCI-H345, SubType C; for EC50: Homo sapiens, 96 h
Excerpt: as §2

NCI-H2227 = assay: as above; type: cell-based, human; conditions: NCI-H2227, SubType C; for EC50: Homo sapiens, 96 h
Excerpt: as §2

DMS-114 = assay: as above; type: cell-based, human; conditions: DMS-114, SubType V; for EC50: Homo sapiens, 96 h
Excerpt: as §2

NCI-H2081 = assay: as above; type: cell-based, human; conditions: NCI-H2081, SubType C; for EC50: Homo sapiens, 96 h
Excerpt: as §2

NCI-H69 = assay: as above; type: cell-based, human; conditions: NCI-H69, SubType C; for EC50: Homo sapiens, 96 h
Excerpt: as §2

SHP-77 = assay: as above; type: cell-based, human; conditions: SHP-77, SubType V(C); for EC50: Homo sapiens, SHP77, 96 h
Excerpt: as §2

NCI-H2029 = assay: as above; type: cell-based, human; conditions: NCI-H2029, SubType (C); for EC50: Homo sapiens, 96 h
Excerpt: as §2

NCI-H1048 = assay: as above; type: cell-based, human; conditions: NCI-H1048, SubType V; for EC50: Homo sapiens, 96 h
Excerpt: as §2

NCI-H146 = assay: as above; type: cell-based, human; conditions: NCI-H146, SubType C; for EC50: Homo sapiens, 96 h
Excerpt: as §2

NCI-H82 = assay: as above; type: cell-based, human; conditions: NCI-H82, SubType V; for EC50: Homo sapiens, 96 h
Excerpt: as §2

NCI-H2171 = assay: as above; type: cell-based, human; conditions: NCI-H2171, SubType V; for EC50: Homo sapiens, 96 h
Excerpt: as §2

NCI-H446 = assay: as above; type: cell-based, human; conditions: NCI-H446, SubType V; for EC50: Homo sapiens, 96 h
Excerpt: as §2

NCI-H748 = assay: as above; type: cell-based, human; conditions: NCI-H748, SubType C; for EC50: Homo sapiens, 96 h
Excerpt: as §2

NCI-H510A = assay: as above; type: cell-based, human; conditions: SubType C; for EC50: Homo sapiens, 96 h
Excerpt: as §2

NCI-H187 = assay: as above; type: cell-based, human; conditions: NCI-H187, SubType C; for EC50: Homo sapiens, 96 h
Excerpt: as §2

SBC-5 = assay: as above; type: cell-based, human; conditions: SBC-5, SubType (V); for EC50: Homo sapiens, 96 h
Excerpt: as §2

NCI-H526 = assay: as above; type: cell-based, human; conditions: NCI-H526, SubType V; for EC50: Homo sapiens, 96 h
Excerpt: as §2

[3] = read-out: Sensitivity to LSD1 inh.

N[C@H]1CC[C@H](N[C@@H]2C[C@H]2c2ccccc2)CC1 [listing 1 of 2 here]
duration of tumor regression (NCI-H526 model): improved the duration of tumor regression
delay of tumor regrowth (NCI-H526 model; after the suspension of dosing): 30 days
tumor growth inhibition (H510A xenograft model): 34%
sensitivity of cell line to the compound (NCI-H1876 [1]): high level of sensitivity
sensitivity of cell line to the compound (NCI-H510): high level of sensitivity

N[C@H]1CC[C@H](N[C@@H]2C[C@H]2c2ccccc2)CC1 [listing 2 of 2 here]
EC50 (NCI-H1876 [2]; read-out: EC50): 0.0432 nM
EC50 (NCI-H1876 [2]; [3]): < 50 nM
Max. Response (%) (NCI-H1876 [2]): 145%
EC50 (NCI-H1417; read-out: EC50): 0.302 nM
EC50 (NCI-H1417; [3]): < 50 nM
Max. Response (%) (NCI-H1417): 77%
EC50 (NCI-H345; read-out: EC50): 0.0275 nM
EC50 (NCI-H345; [3]): < 50 nM
Max. Response (%) (NCI-H345): 7%
EC50 (NCI-H2227; read-out: EC50): > 50 nM
EC50 (NCI-H2227; [3]): ≥ 50 nM
Max. Response (%) (NCI-H2227): 0%
Max. Response (%) (DMS-114): 0%
EC50 (DMS-114; read-out: EC50): > 50 nM
EC50 (DMS-114; [3]): ≥ 50 nM
EC50 (NCI-H2081; read-out: EC50): 0.92 nM
EC50 (NCI-H2081; [3]): < 50 nM
Max. Response (%) (NCI-H2081): 10%
EC50 (NCI-H69; read-out: EC50): 0.585 nM
EC50 (NCI-H69; [3]): < 50 nM
Max. Response (%) (NCI-H69): 44%
EC50 (SHP-77; read-out: EC50): > 50 nM
EC50 (SHP-77; [3]): ≥ 50 nM
Max. Response (%) (SHP-77): 0%
EC50 (NCI-H2029; read-out: EC50): > 50 nM
EC50 (NCI-H2029; [3]): ≥ 50 nM
Max. Response (%) (NCI-H2029): 0%
EC50 (NCI-H1048; read-out: EC50): > 50 nM
EC50 (NCI-H1048; [3]): ≥ 50 nM
Max. Response (%) (NCI-H1048): 27%
EC50 (NCI-H146; read-out: EC50): 0.1 nM
EC50 (NCI-H146; [3]): < 50 nM
Max. Response (%) (NCI-H146): 48%
EC50 (NCI-H82; read-out: EC50): > 50 nM
EC50 (NCI-H82; [3]): ≥ 50 nM
Max. Response (%) (NCI-H82): 0%
EC50 (NCI-H2171; read-out: EC50): > 50 nM
EC50 (NCI-H2171; [3]): ≥ 50 nM
Max. Response (%) (NCI-H2171): 0%
EC50 (NCI-H446; read-out: EC50): > 50 nM
EC50 (NCI-H446; [3]): ≥ 50 nM
Max. Response (%) (NCI-H446): 7%
EC50 (NCI-H748; read-out: EC50): 0.3 nM
EC50 (NCI-H748; [3]): < 50 nM
Max. Response (%) (NCI-H748): 13%
EC50 (NCI-H510A; read-out: EC50): 0.315 nM
EC50 (NCI-H510A; [3]): < 50 nM
Max. Response (%) (NCI-H510A): 68%
EC50 (NCI-H187; read-out: EC50): 0.136 nM
EC50 (NCI-H187; [3]): < 50 nM
Max. Response (%) (NCI-H187): 61%
EC50 (SBC-5; read-out: EC50): > 50 nM
EC50 (SBC-5; [3]): ≥ 50 nM
Max. Response (%) (SBC-5): 23%
EC50 (NCI-H526; read-out: EC50): 0.632 nM
EC50 (NCI-H526; [3]): < 50 nM
Max. Response (%) (NCI-H526): 35%
